This note sets out measurements from PMC9354954, “Assessing Bioavailability and Bioactivity of 4-Hydroxythiazolidine-2-Thiones, Newly Discovered Glucosinolate Degradation Products Formed During Domestic Boiling of Cabbage” (Frontiers in Nutrition, 2022).

The target of assay [1] is T1, glycogen synthase kinases-3α (Homo sapiens, UniProt P49840).
T1 construct: purchased Life Technologies/Thermo Fisher Scientific, SelectScreen Services (Madison, WI, USA)
Nature of the assay: GSK-3 inhibition, Z'-LYTE kinase assay. The assay is classed as biochemical. How it is done:
(§1) The determination of the inhibition of glycogen synthase kinases-3α and -3β by allyl HTT and 4-MSOB HTT was performed via contract research with Life Technologies/Thermo Fisher Scientific by sending the compounds dissolved in 100% DMSO to SelectScreen Services (Madison, WI, USA). The tested concentrations in the Z'-LYTE assay were up to 100 μM and standards were prepared as duplicates. The Z'-LYTE kinase assay is a fluorescence-based assay using a coupled-enzyme format and the different sensitivity of phosphorylated and non-phosphorylated peptides regarding their fluorescence. The data are shown as mean ± SD. Due to the impression of significant bioactivity, further comparisons were performed. […] Stars report different significance levels: ^*p ≤ 0.05, ^**p ≤ 0.01, and ^***p ≤ 0.001.

The target of assay [2] is T2, glycogen synthase kinases-3β (Homo sapiens, UniProt P49841).
T2 construct: purchased Life Technologies/Thermo Fisher Scientific, SelectScreen Services (Madison, WI, USA)
T2 sequence (P49841 whole entry): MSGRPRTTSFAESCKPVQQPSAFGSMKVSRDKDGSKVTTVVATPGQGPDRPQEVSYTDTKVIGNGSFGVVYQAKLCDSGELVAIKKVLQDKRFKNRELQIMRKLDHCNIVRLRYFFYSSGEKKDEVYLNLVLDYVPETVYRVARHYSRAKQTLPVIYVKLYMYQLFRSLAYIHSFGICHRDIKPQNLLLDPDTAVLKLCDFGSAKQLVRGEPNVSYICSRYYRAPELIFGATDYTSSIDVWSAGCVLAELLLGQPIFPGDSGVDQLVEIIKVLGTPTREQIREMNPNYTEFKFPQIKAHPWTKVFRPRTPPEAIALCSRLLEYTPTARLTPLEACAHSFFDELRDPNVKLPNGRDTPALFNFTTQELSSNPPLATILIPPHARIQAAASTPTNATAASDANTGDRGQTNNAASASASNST
Kind of assay: GSK-3 inhibition, Z'-LYTE kinase assay. The assay is classed as biochemical. The protocol:
as §1

T1 sequence (P49840 whole entry): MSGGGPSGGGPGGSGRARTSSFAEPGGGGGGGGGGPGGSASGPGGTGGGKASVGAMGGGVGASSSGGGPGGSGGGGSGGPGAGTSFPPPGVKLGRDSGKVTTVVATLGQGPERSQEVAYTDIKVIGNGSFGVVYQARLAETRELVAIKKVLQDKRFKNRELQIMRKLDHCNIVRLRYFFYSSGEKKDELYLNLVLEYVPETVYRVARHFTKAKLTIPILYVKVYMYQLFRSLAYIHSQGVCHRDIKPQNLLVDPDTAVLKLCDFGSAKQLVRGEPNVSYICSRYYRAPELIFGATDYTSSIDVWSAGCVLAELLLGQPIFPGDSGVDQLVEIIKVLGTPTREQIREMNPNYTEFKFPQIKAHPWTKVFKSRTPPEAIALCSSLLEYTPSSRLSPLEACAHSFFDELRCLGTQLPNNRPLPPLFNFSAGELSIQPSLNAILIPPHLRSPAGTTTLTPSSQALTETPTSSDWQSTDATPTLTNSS

In assay [1], `C[S+]([O-])CCCCN1C(=S)SCC1O` (centres unmarked) [4-MSOB HTT, 4-hydroxy-3-(4-(methylsulfinyl)butyl)thiazolidine-2-thione] returned an inhibition at 100 µM of roughly 29%. `C=CCN1C(=S)SCC1O` (centres unmarked) [allyl HTT, 3-allyl-4-hydroxythiazolidine-2-thione] gave an inhibition at 100 µM in assay [2] of roughly 20%.
